According to patent US20100041632A1, “USES OF THE CARBOXY-AMIDO-TRIAZOLE COMPOUNDS AND SALTS THEREOF” (priority 2006, published 2010):

Assays:
Assay type in all cases: in vivo
Kunming mice [1] = assay: Formalin test (analgesic effect)
Procedure: 320 Kunming mice (18-22 g, half male and half female) were divided into 4 groups randomly with 80 animals in each group.
Control group with dissolvent (PEG400/N.S.): 10 μl PEG400 was administered (ig) twice with the interval of 24 hours. The pain intensity test was carried out 8 hours after the second administration. 200 μl N.S. is injected (sc) 5 minutes before the test.
Morphine/PEG400 group: 10 μl PEG400 was administered (ig) twice with the interval of 24 hours. The pain intensity test was carried out 8 hours after the second administration. Morphine (2 mg/kg body weight) was injected (sc) 5 minutes before the test.
CAI/N.S. group: CAI (20 mg/kg body weight, 2 mg/ml) was administered (ig) twice with the interval of 24 hours. The pain intensity test was carried out 8 hours after the second administration. 200 μl N.S. was injected (sc) 5 minutes before the test.
The pain intensity test was carried out 8 hours after the second administration. Morphine (2 mg/kg body weight) was injected (sc) 5 minutes before the test.
5 minutes after the morphine or N.S. injection, 20 μl 2% formalin was injected (sc) into the subplantar space of the hind paw. The animals were placed immediately in a glass cylinder hanging on a holder, with a mirror placed below with 30° slope to observe the paw responses. The pain responses of the animals with injected paws were recorded; a pain ranking was recorded as follows: 3=the injected paw is licked, bitten, or shaken; 2=the injected paw is elevated and is not in contact with any other surface; 1=the injected paw has little or no weight on it; 0=the injected paw is not favored. The duration of each of the 4 behavioral categories was recorded. The observation lasted for 15 minutes. A pain intensity score was calculated by multiplying the amount of time spent in each category by its assigned category score and adding these products together.

rats = assay: Granulomatous tissue formation (implanted tampon)
Procedure: 44 rats (160 g) were randomly divided into 4 groups (11 rats/group). Animals were slightly anaesthetized by ether. After sterilization, the groin was cut bilaterally. A sterile tampon (50 mg) was implanted (sc). On the same day, the following treatments were administered: N.S. (i.p., control group), 0.067 mg/kg/day dexamethasone (i.p., positive control), 20 mg/kg/day CAI (p.o., dissolved in PEG 400, test group) and 0.067 mg/kg/day dexamethasone+20 mg/kg/day CAI (p.o., dissolved in PEG 400, combination group). After 7 days administration, the animals were sacrificed. The cotton was removed. The granulomatous tissue was dried at 60° C. oven for 12 hr and weighed. Increment in the dry weight of the tissue was taken as measure of granuloma formation. The Increment was adjusted for respective body weight, and the mean value for each group was calculated.

Kunming mice [2] = assay: Croton oil-induced ear edema mouse model
Procedure: Male Kunming mice, weighted 18-22 g, were randomly divided to the following experiment groups, 20 mice/group:
Negative control: normal saline was injected (ig), 0.1 ml/10 g/day for 3 consecutive days.
Vehicle control: PEG400 was injected (ig), […] for 3 consecutive days.
Positive control: Dexamethasone (0.2 mg/ml) was injected (ip), 0.1 ml/10 g/day for 3 consecutive days.
Test group: CAI or its analogs (2 mg/ml, analogs are as described in example 5) was administered (ig), 0.1 ml/10 g/day for 3 consecutive days.
8 hours after the last administration, 20 μl of croton oil solution (2%) was applied to the right ear of each mouse. The left ear remained untreated as control. The animals were sacrificed 4 hours later, and a piece of tissue was punched from the same position of the treated and untreated ear. The tissues were weighed on a 0.1 mg balance. The difference in weight between the two pieces of tissue of each mouse was taken as a measure of swelling intensity.

IL-1β = IL-1β levels in paw tissue and serum of adjuvant arthritis rat (ELISA); details: AA rats, day 29, ELISA
Procedure: The adjuvant arthritis rat was prepared as described in example 8. Treatment was performed as described in example 8. Blood was collected from eve socket on day 29 and left in room temperature to allow coagulating. Then serum was separated by centrifugation at 3000 rpm for 10 min and kept in −20° C. After animals were sacrificed, the subcutaneous tissue of the right hind paw and that surrounding the tarsotibial joints was removed, broke into pieces, and placed in 5 ml normal saline (0.9%). The tissues were homogenized in a high speed homogenizer. Then the homogenate was centrifuged at 4° C. and 10,000 rpm for 15 min. The supernatants were collected and stored at −20° C. until further analysis.
IL-1β and TNF-α levels in paw tissue and serum were measured using specific rat ELISA kits according to the manufacturer's instructions.

NC(=O)c1nnn(Cc2cc(Cl)c(C(=O)c3ccc(Cl)cc3)c(Cl)c2)c1N [CAI, 5-amino-1-[3,5-dichloro-4-(4-chlorobenzoyl chloride)benzyl]-1H-1,2,3-triazole-4-carboxamide]
Pain intensity score (mean ± std) (Kunming mice [1]; 2% formalin sc hind paw, 15 minutes observation, CAI 20 mg/kg ig twice, morphine 2 mg/kg sc): 1007 ± 255
Analgesic effect in formalin test (in words) (Kunming mice [1]; pain scores compared with the control group): decrease significantly
granulomatous tissue:bady weight ratio (mean ± std) (rats; 7 days, CAI 20 mg/kg/day p.o., dexamethasone 0.067 mg/kg/day i.p.): 0.060 ± 0.00479
Effect on granulomatous tissue formation (in words) (rats; two-way ANOVA): potent in inhibiting granulomatous tissue formation
Swelling intensity (mg) mean ± std (Kunming mice [2]; ear weight difference 4 hours after 2% croton oil, CAI/analogs 2 mg/ml ig, dexamethasone 0.2 mg/ml ip, 0.1 ml/10 g/day, 3 days): 7.8 ± 0.2 mg
Anti-inflammatory effect in ear edema model (in words) (Kunming mice [2]; mouse, in vivo): obvious anti-inflammatory effects
IL-1β levels in paw tissue and serum (in words) (IL-1β): significantly reduced
